Laboratory results from ChEMBL document CHEMBL2016455, “5-Benzothiazole substituted pyrimidine derivatives as HCV replication (replicase) inhibitors” (Bioorg Med Chem Lett, 2012).

Columns and labels:
[1] = tested on: Hepatitis C virus; test: Antiviral activity against Hepatitis C virus isolate con1 1b infected in human hepatoma cells replicon cells after 3 days by RT-PCR analysis; type: functional, organism-based, Hepacivirus hominis, genotype 1b Con1; settings: Hepatitis C virus, genotype 1b Con1, 72 h
[2] = Cytotoxicity against human hepatoma cells after 3 days by MTS assay; type: cell-based; settings: human hepatoma cells
[3] = Cytotoxicity against human hepatoma cells assessed as decrease in RNA level after 3 days by RT-PCR analysis; type: cell-based; settings: human hepatoma cells
[4] = AUC (0 to 6 hrs) in rat at 10 mg/kg, po; type: ADME, organism-based; set-up: time < 6 hr, dose 10 mg/kg, route oral; settings: plasma
[5] = tested on: Liver; test: Drug uptake in rat liver per mg tissue at 10 mg/kg, po after 6 hrs; type: ADME, organism-based; set-up: dose 10 mg/kg, route oral; settings: in vivo

Structure (SMILES)	EC50 [1]	CC50 at 72 h [2]	CC50 at 72 h [3]	AUC(0-t) at 6 h [4]	Drug uptake [5]
Nc1nc(Cl)c(-c2ccccc2)c(N[C@@H]2C[C@H](CO)[C@@H](O)[C@H]2O)n1	> 25 µM	> 25 µM			
Nc1nc(Cl)c(-c2ccccn2)c(N[C@@H]2C[C@H](CO)[C@@H](O)[C@H]2O)n1	> 25 µM	> 25 µM	> 25 µM		
Nc1nc(Cl)c(-c2cnccn2)c(N[C@@H]2C[C@H](CO)[C@@H](O)[C@H]2O)n1	> 25 µM	> 25 µM			
Nc1nc(Cl)c(-c2ccco2)c(N[C@@H]2C[C@H](CO)[C@@H](O)[C@H]2O)n1	4 µM	> 25 µM	> 25 µM		
Nc1nc(Cl)c(-c2cccs2)c(N[C@@H]2C[C@H](CO)[C@@H](O)[C@H]2O)n1	> 25 µM		> 25 µM		
Nc1nc(Cl)c(-c2ncco2)c(N[C@@H]2C[C@H](CO)[C@@H](O)[C@H]2O)n1	> 25 µM	> 25 µM	> 25 µM		
Nc1nc(Cl)c(-c2nccs2)c(N[C@@H]2C[C@H](CO)[C@@H](O)[C@H]2O)n1	3 µM	> 25 µM	> 25 µM		
Nc1nc(Cl)c(-c2cc3ccccc3[nH]2)c(N[C@@H]2C[C@H](CO)[C@@H](O)[C@H]2O)n1	7 µM	25 µM			
Nc1nc(Cl)c(-c2cc3ccccc3o2)c(N[C@@H]2C[C@H](CO)[C@@H](O)[C@H]2O)n1	0.3 µM	> 25 µM			
Nc1nc(Cl)c(-c2cc3ccccc3s2)c(N[C@@H]2C[C@H](CO)[C@@H](O)[C@H]2O)n1	> 25 µM		> 25 µM		
Nc1nc(Cl)c(-c2nc3ccccc3o2)c(N[C@@H]2C[C@H](CO)[C@@H](O)[C@H]2O)n1	0.05 µM	15 µM	12 µM		
Nc1nc(Cl)c(-c2nc3ccccc3s2)c(N[C@@H]2C[C@H](CO)[C@@H](O)[C@H]2O)n1	0.02 µM	18 µM	14 µM	0.08 µM·h	
Nc1nc(Cl)c(-c2nc3ccc(F)cc3s2)c(N[C@@H]2C[C@H](CO)[C@@H](O)[C@H]2O)n1	0.18 µM	> 25 µM	> 25 µM		
Nc1nc(Cl)c(-c2nc3ccc(Cl)cc3s2)c(N[C@@H]2C[C@H](CO)[C@@H](O)[C@H]2O)n1	0.65 µM	> 25 µM	16 µM		
COc1ccc2nc(-c3c(Cl)nc(N)nc3N[C@@H]3C[C@H](CO)[C@@H](O)[C@H]3O)sc2c1	0.045 µM	> 25 µM	> 25 µM		
CCOc1ccc2nc(-c3c(Cl)nc(N)nc3N[C@@H]3C[C@H](CO)[C@@H](O)[C@H]3O)sc2c1	0.03 µM	25 µM	> 25 µM		
CNc1ccc2nc(-c3c(Cl)nc(N)nc3N[C@@H]3C[C@H](CO)[C@@H](O)[C@H]3O)sc2c1	0.05 µM	16 µM	6 µM		
CNc1ccc2sc(-c3c(Cl)nc(N)nc3N[C@@H]3C[C@H](CO)[C@@H](O)[C@H]3O)nc2c1	0.02 µM	14 µM	20 µM		
CN(C)c1ccc2nc(-c3c(Cl)nc(N)nc3N[C@@H]3C[C@H](CO)[C@@H](O)[C@H]3O)sc2c1	1 µM	> 25 µM	> 25 µM		
CN(C)c1ccc2sc(-c3c(Cl)nc(N)nc3N[C@@H]3C[C@H](CO)[C@@H](O)[C@H]3O)nc2c1	0.035 µM	21 µM	25 µM		
Cc1nc(N)nc(N[C@@H]2C[C@H](CO)[C@@H](O)[C@H]2O)c1-c1nc2ccccc2s1	0.13 µM	25 µM	4 µM	4.7 µM·h	

Structure (SMILES)	EC50 [1]	CC50 at 72 h [2]	CC50 at 72 h [3]	AUC(0-t) at 6 h [4]	Drug uptake [5]
CCCNc1nc(C)c(-c2nc3ccccc3s2)c(N[C@@H]2C[C@H](CO)[C@@H](O)[C@H]2O)n1	0.31 µM	> 25 µM	> 25 µM		
CCc1nc(N(C)C)nc(N[C@@H]2C[C@H](CO)[C@@H](O)[C@H]2O)c1-c1nc2ccccc2s1	13 µM	> 25 µM	> 25 µM		
Cc1nc(NCCNC(=O)NC(C)(C)C)nc(N[C@@H]2C[C@H](CO)[C@@H](O)[C@H]2O)c1-c1nc2ccccc2s1	0.9 µM	> 25 µM	> 25 µM		
Cc1nc(NCCNS(C)(=O)=O)nc(N[C@@H]2C[C@H](CO)[C@@H](O)[C@H]2O)c1-c1nc2ccccc2s1	0.26 µM	> 25 µM	> 25 µM		
OC[C@H]1C[C@@H](Nc2nc(NCC(F)(F)F)nc(C3CC3)c2-c2nc3ccccc3s2)[C@H](O)[C@@H]1O	0.7 µM	> 25 µM	> 25 µM	12.8 µM·h	12800 ng/g
Cc1nc(N[C@@H](C)C(F)(F)F)nc(N[C@@H]2C[C@H](CO)[C@@H](O)[C@H]2O)c1-c1nc2ccccc2s1	0.14 µM	> 25 µM	> 25 µM	13 µM·h	6570 ng/g
Cc1nc(N[C@H](C)C(F)(F)F)nc(N[C@@H]2C[C@H](CO)[C@@H](O)[C@H]2O)c1-c1nc2ccccc2s1	0.1 µM	19 µM	21 µM		
Cc1nc(NCCC(F)(F)F)nc(N[C@@H]2C[C@H](CO)[C@@H](O)[C@H]2O)c1-c1nc2ccccc2s1	0.03 µM	9 µM	9 µM	5.3 µM·h	1080 ng/g
Cc1nc(NCCCC(F)(F)F)nc(N[C@@H]2C[C@H](CO)[C@@H](O)[C@H]2O)c1-c1nc2ccccc2s1	0.03 µM	4 µM	3 µM	2.1 µM·h	2230 ng/g
Cc1nc(Nc2ccccc2)nc(N[C@@H]2C[C@H](CO)[C@@H](O)[C@H]2O)c1-c1nc2ccccc2s1	0.28 µM	> 25 µM	> 25 µM	1.6 µM·h	970 ng/g
Cc1nc(Nc2ccncc2)nc(N[C@@H]2C[C@H](CO)[C@@H](O)[C@H]2O)c1-c1nc2ccccc2s1	0.33 µM	7 µM	7 µM		
Cc1nc(Nc2nccs2)nc(N[C@@H]2C[C@H](CO)[C@@H](O)[C@H]2O)c1-c1nc2ccccc2s1	0.77 µM	13 µM	15 µM		
Cc1nc(Nc2ncco2)nc(N[C@@H]2C[C@H](CO)[C@@H](O)[C@H]2O)c1-c1nc2ccccc2s1	4.5 µM	> 25 µM	> 25 µM		
Cc1nc(NCc2ccccc2)nc(N[C@@H]2C[C@H](CO)[C@@H](O)[C@H]2O)c1-c1nc2ccccc2s1	0.03 µM	7 µM	9 µM	2.2 µM·h	430 ng/g
Cc1nc(NCc2cccs2)nc(N[C@@H]2C[C@H](CO)[C@@H](O)[C@H]2O)c1-c1nc2ccccc2s1	0.006 µM	5 µM	6 µM	0.5 µM·h	180 ng/g
Cc1nc(NCc2ccsc2)nc(N[C@@H]2C[C@H](CO)[C@@H](O)[C@H]2O)c1-c1nc2ccccc2s1	0.015 µM	4 µM	6 µM	0.2 µM·h	75 ng/g
Cc1nc(NCc2nccs2)nc(N[C@@H]2C[C@H](CO)[C@@H](O)[C@H]2O)c1-c1nc2ccccc2s1	0.03 µM	21 µM	23 µM	0.5 µM·h	150 ng/g
Cc1nc(NCc2ccccn2)nc(N[C@@H]2C[C@H](CO)[C@@H](O)[C@H]2O)c1-c1nc2ccccc2s1	0.03 µM	18 µM	13 µM	3.4 µM·h	125 ng/g
Cc1nc(NCc2cccnc2)nc(N[C@@H]2C[C@H](CO)[C@@H](O)[C@H]2O)c1-c1nc2ccccc2s1	0.015 µM	11 µM	5 µM	0.02 µM·h	10 ng/g
Cc1nc(NCc2ccncc2)nc(N[C@@H]2C[C@H](CO)[C@@H](O)[C@H]2O)c1-c1nc2ccccc2s1	0.03 µM	9 µM	7 µM	0.1 µM·h	100 ng/g
